Test results taken from US7851489B2, “Pyridinone compounds” (Bristol-Myers Squibb Company, priority 2006, dated 2010).
Like-named read-outs stand apart in the source and are kept apart here.

What was measured:
[1] = test system: U87 human glioblastoma model; test: In vivo efficacy against U87 glioblastoma xenografts
From the text: In Vivo Efficacy Determination […] FIG. 2. Antitumor activity against U87 glioblastoma xenografts

[2] = test system: GTL-16 human gastric carcinoma model; test: In vivo efficacy against GTL-16 gastric carcinoma xenografts
From the text: In Vivo Efficacy Determination […] FIG. 1. Antitumor activity against GTL-16 gastric carcinoma xenografts

[3] = molecular target: T1, GST-Met kinase (Homo sapiens, UniProt P08581); test: Met kinase assay; format: biochemical; conditions: 1 μM ATP, polyGlu:Tyr (4:1) substrate, 60 min at 30° C.
T1 construct: host or cells: baculovirus expression system
Description: Incubation mixtures employed for the Met kinase assay contain a baculovirus expressed GST-Met kinase, the synthetic substrate polyGlu:Tyr, (4:1), ATP, ATP-γ-^33 P and buffer containing Mn^++, DTT, BSA, and Tris. Reactions were incubated for 60 minutes at 30° C. and stopped by the addition of cold trichloroacetic acid (TCA) to a final concentration 8%. TCA precipitates were collected onto GF/C unifilter plates (Packard Instrument Co., Meriden, Conn.) using a Filtermate universal harvester (Packard Instrument Co., Meriden, Conn.) and the filters are quantitated using a TopCount 96/384-well liquid scintillation counter (Packard Instrument Co., Meriden, Conn.). Dose response curves were generated to determine the concentration required to inhibit 50% of kinase activity (IC—50). Compounds were dissolved at 10 mM in dimethyl sulfoxide (DMSO) and evaluated at ten concentrations, each in duplicate. The final concentration of DMSO in the assay is 1.7%. IC—50 values were derived by non-linear regression.

[4] = Pharmacokinetic parameters obtained in mice, 8 h oral exposure study; format: in vivo; conditions: mouse, serum; single oral dose 50 mg/kg, solution in 70% PEG400/30% water, fasted male Balb/C mice; read-out: Pharmacokinetic Parameters AUC0-8 h
Description: Pharmacokinetic Parameters Obtained in Mice. In a 8 h oral exposure studies, a single-dose of 50 mg/kg of the compounds were delivered as a solution in 70% PEG400/30% water by oral gavage to fasted adult male Balb/C mice (n=2 or 3 per compound). Three serum samples were collected from each mouse at 0.5, 1, 4, 8 h time points following oral dosing. The first two samples were obtained by retro-orbital bleed (˜100 μL/20-25 g mouse) and the third sample by cardiac puncture. The blood samples were allowed to clot on ice, centrifuged and then serum harvested. Plasma samples were stored at −20° C. prior to analysis. The plasma samples were analyzed for parent compound via HPLC coupled tandem mass spectrometry (LC/MS/MS).

[5] = molecular target: T2, CYP3A4 (Homo sapiens, UniProt P08684); test: Cytochrome P450 assay (recombinant human CYP isoforms, fluorescence); format: in vitro ADME
T2 construct: host or cells: baculovirus-infected insect cells
T2 sequence (P08684 whole entry, canonical isoform): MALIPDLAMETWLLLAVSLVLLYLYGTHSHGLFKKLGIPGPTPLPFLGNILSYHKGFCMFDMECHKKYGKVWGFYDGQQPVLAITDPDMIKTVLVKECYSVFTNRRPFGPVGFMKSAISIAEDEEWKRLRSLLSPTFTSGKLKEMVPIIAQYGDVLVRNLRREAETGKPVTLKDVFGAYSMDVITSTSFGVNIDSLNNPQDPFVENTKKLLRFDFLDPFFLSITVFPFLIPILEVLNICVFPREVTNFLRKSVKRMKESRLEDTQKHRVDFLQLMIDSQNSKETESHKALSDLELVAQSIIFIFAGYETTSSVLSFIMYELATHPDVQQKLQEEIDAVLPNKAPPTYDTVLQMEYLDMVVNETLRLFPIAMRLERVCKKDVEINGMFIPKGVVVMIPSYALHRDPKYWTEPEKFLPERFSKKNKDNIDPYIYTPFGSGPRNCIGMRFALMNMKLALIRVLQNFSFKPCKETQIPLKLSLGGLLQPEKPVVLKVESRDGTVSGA
Description: The ability of compound to inhibit the major human cytochrome P450s (CYPs) responsible for drug metabolism was evaluated in vitro using recombinant human CYP isoforms. […] CYP3A4 inhibition was evaluated with two substrates: 7-benzyloxy-4-trifluoromethylcoumarin (BFC) and resorufin benzyl ether (BzRes). A single concentration of each model substrate (at approximately the apparent Km, with the exception of BFC, which was tested below the apparent Km) and multiple concentrations of the test compounds, separated by approximately ½ log units, were tested in duplicate. Metabolism of the model substrates was assayed by the production of 7-hydroxy-3-cyanocoumarin, 3-[2-(N,N-diethylamino)ethyl]-7-hydroxy-4-methylcoumarin, 7-hydroxy-4-trifluoromethylcoumarin or resorufin, and measured via fluorescence detection. Assays were conducted in 96-well microtiter plates in the presence of an NADPH generating system. Positive control samples were included in these studies. […] The IC50 values were calculated utilizing XLfit curve-fitting software.

T1 sequence (P08581 25-1390): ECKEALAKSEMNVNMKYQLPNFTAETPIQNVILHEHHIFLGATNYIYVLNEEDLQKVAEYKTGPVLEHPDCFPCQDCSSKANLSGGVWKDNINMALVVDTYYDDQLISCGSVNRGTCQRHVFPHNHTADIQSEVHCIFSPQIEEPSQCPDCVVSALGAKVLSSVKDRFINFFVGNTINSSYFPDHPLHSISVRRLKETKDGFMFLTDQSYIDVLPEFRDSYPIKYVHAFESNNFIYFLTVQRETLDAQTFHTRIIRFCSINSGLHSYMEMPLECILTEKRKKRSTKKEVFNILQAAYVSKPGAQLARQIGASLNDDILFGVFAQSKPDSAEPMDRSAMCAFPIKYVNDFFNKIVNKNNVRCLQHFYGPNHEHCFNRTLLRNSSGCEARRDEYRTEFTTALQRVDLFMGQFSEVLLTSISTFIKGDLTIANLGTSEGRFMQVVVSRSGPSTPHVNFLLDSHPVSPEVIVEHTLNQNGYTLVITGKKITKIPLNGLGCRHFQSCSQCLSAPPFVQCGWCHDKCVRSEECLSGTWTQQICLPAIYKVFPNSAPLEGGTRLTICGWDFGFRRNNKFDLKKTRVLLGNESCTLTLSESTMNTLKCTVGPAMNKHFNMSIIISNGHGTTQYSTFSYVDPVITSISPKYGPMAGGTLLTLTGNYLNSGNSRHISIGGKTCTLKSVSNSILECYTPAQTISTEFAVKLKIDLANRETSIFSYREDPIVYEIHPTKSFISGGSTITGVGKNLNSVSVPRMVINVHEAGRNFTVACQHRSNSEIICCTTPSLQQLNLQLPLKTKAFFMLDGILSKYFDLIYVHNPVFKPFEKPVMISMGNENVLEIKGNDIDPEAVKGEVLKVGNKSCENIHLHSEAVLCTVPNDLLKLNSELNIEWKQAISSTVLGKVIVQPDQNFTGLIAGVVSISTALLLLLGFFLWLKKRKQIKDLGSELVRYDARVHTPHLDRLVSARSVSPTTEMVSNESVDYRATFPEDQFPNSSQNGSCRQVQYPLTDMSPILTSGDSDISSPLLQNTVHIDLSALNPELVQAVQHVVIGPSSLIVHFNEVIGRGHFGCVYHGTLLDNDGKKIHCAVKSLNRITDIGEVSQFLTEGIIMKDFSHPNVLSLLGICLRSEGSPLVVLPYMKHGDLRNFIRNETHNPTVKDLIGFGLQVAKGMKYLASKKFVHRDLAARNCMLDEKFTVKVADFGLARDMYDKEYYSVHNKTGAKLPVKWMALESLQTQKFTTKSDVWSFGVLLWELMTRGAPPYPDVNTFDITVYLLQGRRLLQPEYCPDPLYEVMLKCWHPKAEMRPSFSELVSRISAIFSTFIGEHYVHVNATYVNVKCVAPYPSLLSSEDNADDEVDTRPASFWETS

Row | IC50 [3] [nM] | AUC(0-t) [4] [µM·h] | IC50 ([5]; substrate 7-benzyloxy-4-trifluoromethylcoumarin (BFC), read-out: CYP 3A4-BFC IC50) [nM] | IC50 ([5]; substrate resorufin benzyl ether (BzRes), read-out: CYP 3A4-BZR IC50) [nM] | Compound | antitumor activity ([1]; 25 mg/kg) | antitumor activity ([1]; 50 mg/kg) | overt toxicity ([2]; GTL-16 study, 6.25 mg/kg to 50 mg/kg dosed once a day for 14 days) | maximum efficacious dose level ([2]; GTL-16 tumor xenograft) [mg/kg] | minimum efficacious dose (MED) ([2]; GTL-16 tumor xenograft) [mg/kg] | antitumor activity ([2]; GTL-16 xenografts, 25 mg/kg) | antitumor activity ([2]; GTL-16 xenografts, 50 mg/kg) | antitumor activity at higher dose ([2]; GTL-16 xenografts, 100 mg/kg, previously described study) | tumor growth inhibition (TGI) ([2]; GTL-16 xenografts, lowest dose level tested, 6.25 mg/kg) | tumor growth inhibition (TGI) ([2]; GTL-16 xenografts, multiple dose levels ranging from 6.25 mg/kg to 50 mg/kg, once a day for 14 days, for at least one tumor doubling time)
1 | 3.5 | 236 |  |  | CCOc1ccn(-c2ccc(F)cc2)c(=O)c1C(=O)Nc1ccc(Oc2ccnc(N)c2Cl)c(F)c1 [Compound 1, N-(4-(2-Amino-3-chloropyridin-4-yloxy)-3-fluorophenyl)-4-ethoxy-1-(4-fluorophenyl)-2-oxo-1,2-dihydropyridine-3-carboxamide] | complete tumor stasis | complete tumor stasis | No overt toxicity was observed | 25 | 6.25 | complete tumor stasis | complete tumor stasis | no increase in activity was observed | greater than 50% | greater than 50%
2 |  | 33 | 510 | 6400 | Cl.Nc1cc(Oc2ccc(NC(=O)c3cccn(-c4ccc(F)cc4)c3=O)cc2F)ccn1 [Compound 2, N-(4-(2-Aminopyridin-4-yloxy)-3-fluorophenyl)-1-(4-fluorophenyl)-2-oxo-1,2-dihydropyridine-3-carboxamide, hydrochloride salt] |  |  |  |  |  |  |  |  |  | 
